Measured values: US20220347171A1, “TREATMENT OF PRURIGO NODULARIS” (TREVI THERAPEUTICS, INC., priority 2016, published 2022)
Structures can show the parent of a compound that is named as a salt.

Test system: prurigo nodularis patients
Experiment: Double-blind, placebo-controlled trial in prurigo nodularis patients (Example 2): 7-day average daily Worst Itching Intensity NRS (0-10)
Format: in vivo, human
Protocol: This clinical study was a double-blind, placebo-controlled trial in which prurigo nodularis patients were randomized in a 1:1:1 ratio to nalbuphine ER tablets to a target dose of 90 mg twice daily (BID), nalbuphine HCl ER tablets 180 mg BID, or placebo tablets BID. Use of nonsedating rescue antihistamine medications (non-first generation H1-antihistamines [Simons F E. Advances in H1-antihistamines. N Engl J Med. 2004; 351(21):2203-17.]) were allowed in the study but their use was recorded. Cleansing emollients were allowed for hygiene purposes provided there were no active substances (such as menthol or urea) contained in the lotion. A placebo comparator was chosen because there are no approved treatments for prurigo nodularis in the United States or Europe or an established standard of care that could serve as an active control.
The primary objectives were to evaluate the effects of two doses of nalbuphine HCl ER tablets on the 7-day average daily worst itch (i.e., most severe) intensity using a Worst Itching Intensity Numerical Rating Scale (NRS, 0 [no itching]-10 [worst possible itching]; range, 0-10; anchors at 0 “no itching”; 4-6 “moderate itching”; and 10 “worst possible itching”) (FIG. 1) as well as safety and tolerability. The study was conducted at four North American sites and four European sites. The Sponsor oversaw the conduct of the trial and an independent unblinded Data Safety Monitoring Board reviewed safety data approximately once a month during the conduct of the trial.
The initial primary endpoint was the proportion of patients who achieved at least 30% reduction threshold in 7-day average daily diary-reported worst itch intensity NRS score from baseline to Week 10/last observed post-baseline value (LOV). For the primary endpoint, a responder was a patient who achieved at least 30% reduction threshold in 7-day average daily diary-reported worst itch intensity NRS score from baseline to Week 10/last observed post-baseline value (LOV).
Before study completion and unblinding, however, a more substantial 50% NRS reduction criterion was added as an important definition of response. For this criterion, a responder was a patient who achieved at least 50% reduction threshold in 7-day average daily diary-reported worst itch intensity NRS score from baseline to Week 10/last observed post-baseline value (LOV).
The modified intent-to-treat (MITT) population consisted of all randomly assigned patients who provided a baseline calculated NRS and at least one post-baseline NRS during randomized treatment. Patients were analyzed according to the treatment to which they were randomly assigned.
The primary worst itch NRS endpoint was evaluated by the calculation of proportions, and statistical testing of each nalbuphine dose and placebo was undertaken using a stratified categorical method, the Cochran-Mantel-Haenszel test that took into account site. Specifically, each nalbuphine group was compared to placebo in the form of a stratified (by site) 2×2 table with a P value reported for the nalbuphine HCl ER 180 mg BID versus placebo comparison and a P value separately reported for the nalbuphine HCl ER 90 mg BID versus placebo comparison. The lower nalbuphine dose versus placebo P value was evaluated only if the higher nalbuphine dose versus placebo P value was statistically significant at the 0.05 level. Data from all post-baseline visits were used to fit the model.
In the first 2 weeks of treatment, patients were blindly force-titrated to their assigned target dose, with the patients in the active arms reaching a dose of 90 mg BID (NAL 90) and, for those in the high dose group, to 180 mg BID (NAL 180) in the second week. Study drug was administered in blister cards containing the labeled morning and evening doses for each day of the week. Subsequently, patients continued stable doses of the study drug for an additional 8 weeks and were then washed off study drug and followed for another 2 weeks for itching intensity and safety.

For `Oc1ccc2c3c1OC1[C@@H](O)CC[C@@]4(O)[C@@H](C2)N(CC2CCC2)CC[C@]314` (stereo partly drawn) [Nalbuphine, 17-(cyclobutylmethyl)-4,5α-epoxymorphinian-3, 6α, 14-triol, hydrochloride], the “Responders: at least 30% reduction in 7-day average daily diary-reported worst itch intensity NRS score from baseline” value (“Responders: at least 30% reduction” below) (90 mg BID, Week 10 - LOV, MITT N=22, P value 0.779 vs placebo) was 6 (27.3) N (%), the “Responders: at least 50% reduction in 7-day average daily diary-reported worst itch intensity NRS score from baseline” value (“Responders: at least 50% reduction” below) (90 mg BID, Week 10 - LOV, MITT N=22, p-value 0.981 vs placebo) was 3 (13.6%) N (%) and the “Responders: at least 30% reduction” value (90 mg BID, Week 10 - completer, N=18, P value 0.723 vs placebo) was 6 (33.3) N (%). The “Responders: at least 50% reduction” value (90 mg BID, Week 10 - completer, N=18, p-value 0.649 vs placebo) was 2 (11.1%) N (%), the “Responders: at least 30% reduction” value (180 mg BID, Week 10 - LOV, MITT N=18, P value 0.323 vs placebo) was 8 (44.4) N (%) and the “Responders: at least 50% reduction” value (180 mg BID, Week 10 - LOV, MITT N=18, p-value 0.083 vs placebo) was 6 (33.3%) N (%). For the same compound, the “Responders: at least 30% reduction” value (180 mg BID, Week 10 - completer, N=12, P value 0.026 vs placebo) was 9 (75.0) N (%), the “Responders: at least 50% reduction” value (180 mg BID, Week 10 - completer, N=12, p-value 0.028 vs placebo) was 6 (50%) N (%) and the “Mean Change from Baseline to the Last Observation in the Worst Itching NRS versus placebo” value (180 mg BID, patients who completed the study, P=0.025) was “statistically significant difference”.
